Measured values as given in ChEMBL document CHEMBL3991601, “The target landscape of clinical kinase drugs” (Science, 2017).
Activity calls are given as the source filed them. Cut-off read from the data, not from the text of the source: actives have a measured Kd and inactives only a lower limit.

Columns and labels:
[1] = target: T1, Cyclin-G-associated kinase (Homo sapiens, UniProt O14976)
T1 sequence (O14976 whole entry): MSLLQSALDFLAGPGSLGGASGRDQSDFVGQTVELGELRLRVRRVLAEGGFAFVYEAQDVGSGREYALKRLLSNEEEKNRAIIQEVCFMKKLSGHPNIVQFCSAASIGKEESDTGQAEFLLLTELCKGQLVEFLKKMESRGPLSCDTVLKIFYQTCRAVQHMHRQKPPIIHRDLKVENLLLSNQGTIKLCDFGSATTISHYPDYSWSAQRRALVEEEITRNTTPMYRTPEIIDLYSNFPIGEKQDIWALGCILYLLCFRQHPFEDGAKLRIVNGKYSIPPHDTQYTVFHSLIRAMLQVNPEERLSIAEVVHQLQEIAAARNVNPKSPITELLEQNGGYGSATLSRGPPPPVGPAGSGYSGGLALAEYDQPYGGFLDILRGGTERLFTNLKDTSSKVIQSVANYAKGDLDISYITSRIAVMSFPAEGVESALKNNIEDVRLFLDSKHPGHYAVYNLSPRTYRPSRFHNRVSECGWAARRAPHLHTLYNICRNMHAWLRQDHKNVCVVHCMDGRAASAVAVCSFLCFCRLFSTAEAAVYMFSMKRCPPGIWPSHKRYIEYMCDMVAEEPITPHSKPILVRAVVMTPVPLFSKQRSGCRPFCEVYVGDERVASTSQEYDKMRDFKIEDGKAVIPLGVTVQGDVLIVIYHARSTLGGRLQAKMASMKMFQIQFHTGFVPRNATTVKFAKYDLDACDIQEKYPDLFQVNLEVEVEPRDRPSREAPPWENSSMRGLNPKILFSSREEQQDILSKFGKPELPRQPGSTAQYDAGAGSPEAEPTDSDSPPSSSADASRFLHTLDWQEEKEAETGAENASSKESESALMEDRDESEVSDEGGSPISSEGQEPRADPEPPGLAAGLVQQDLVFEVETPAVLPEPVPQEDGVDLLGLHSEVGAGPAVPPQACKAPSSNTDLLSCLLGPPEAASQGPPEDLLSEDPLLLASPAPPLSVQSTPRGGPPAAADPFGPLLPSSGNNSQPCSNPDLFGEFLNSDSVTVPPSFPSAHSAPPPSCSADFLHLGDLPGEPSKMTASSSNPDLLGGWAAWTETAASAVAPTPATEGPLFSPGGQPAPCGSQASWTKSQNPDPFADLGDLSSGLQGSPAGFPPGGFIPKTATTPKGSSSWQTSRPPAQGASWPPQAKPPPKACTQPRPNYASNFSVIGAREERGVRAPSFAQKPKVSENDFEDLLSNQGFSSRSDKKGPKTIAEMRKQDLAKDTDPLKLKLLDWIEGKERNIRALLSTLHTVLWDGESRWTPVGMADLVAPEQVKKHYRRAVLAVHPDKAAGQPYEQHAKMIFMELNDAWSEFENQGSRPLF

[2] = target: T2, Phosphorylase b kinase gamma catalytic chain, liver/testis isoform (Homo sapiens, UniProt P15735)
T2 sequence (P15735 whole entry): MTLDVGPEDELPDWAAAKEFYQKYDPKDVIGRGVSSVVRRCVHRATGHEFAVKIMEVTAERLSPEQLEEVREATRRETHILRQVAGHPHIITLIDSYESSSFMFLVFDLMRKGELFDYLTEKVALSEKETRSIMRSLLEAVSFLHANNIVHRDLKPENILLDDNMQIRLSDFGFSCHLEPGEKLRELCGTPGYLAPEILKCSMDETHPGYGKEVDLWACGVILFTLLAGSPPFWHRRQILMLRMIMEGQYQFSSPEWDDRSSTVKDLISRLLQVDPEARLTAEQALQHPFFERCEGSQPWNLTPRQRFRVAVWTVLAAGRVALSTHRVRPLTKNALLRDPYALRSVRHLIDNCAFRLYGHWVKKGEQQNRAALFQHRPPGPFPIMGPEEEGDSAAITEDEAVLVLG

[3] = target: T3, Phosphatidylinositol 5-phosphate 4-kinase type-2 gamma (Homo sapiens, UniProt Q8TBX8)
T3 sequence (Q8TBX8 whole entry): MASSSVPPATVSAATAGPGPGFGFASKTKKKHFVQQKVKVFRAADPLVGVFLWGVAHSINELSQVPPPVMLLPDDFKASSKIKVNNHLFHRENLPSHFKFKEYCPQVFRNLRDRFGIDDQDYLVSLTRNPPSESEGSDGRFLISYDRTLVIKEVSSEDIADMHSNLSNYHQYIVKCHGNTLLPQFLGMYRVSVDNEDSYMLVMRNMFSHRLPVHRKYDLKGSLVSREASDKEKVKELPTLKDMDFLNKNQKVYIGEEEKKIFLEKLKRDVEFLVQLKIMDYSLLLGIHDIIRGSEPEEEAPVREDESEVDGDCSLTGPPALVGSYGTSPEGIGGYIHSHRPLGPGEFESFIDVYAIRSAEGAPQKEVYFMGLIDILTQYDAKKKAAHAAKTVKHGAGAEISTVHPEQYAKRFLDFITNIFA

[4] = target: T4, Serine/threonine-protein kinase D2 (Homo sapiens, UniProt Q9BZL6)
T4 sequence (Q9BZL6 whole entry): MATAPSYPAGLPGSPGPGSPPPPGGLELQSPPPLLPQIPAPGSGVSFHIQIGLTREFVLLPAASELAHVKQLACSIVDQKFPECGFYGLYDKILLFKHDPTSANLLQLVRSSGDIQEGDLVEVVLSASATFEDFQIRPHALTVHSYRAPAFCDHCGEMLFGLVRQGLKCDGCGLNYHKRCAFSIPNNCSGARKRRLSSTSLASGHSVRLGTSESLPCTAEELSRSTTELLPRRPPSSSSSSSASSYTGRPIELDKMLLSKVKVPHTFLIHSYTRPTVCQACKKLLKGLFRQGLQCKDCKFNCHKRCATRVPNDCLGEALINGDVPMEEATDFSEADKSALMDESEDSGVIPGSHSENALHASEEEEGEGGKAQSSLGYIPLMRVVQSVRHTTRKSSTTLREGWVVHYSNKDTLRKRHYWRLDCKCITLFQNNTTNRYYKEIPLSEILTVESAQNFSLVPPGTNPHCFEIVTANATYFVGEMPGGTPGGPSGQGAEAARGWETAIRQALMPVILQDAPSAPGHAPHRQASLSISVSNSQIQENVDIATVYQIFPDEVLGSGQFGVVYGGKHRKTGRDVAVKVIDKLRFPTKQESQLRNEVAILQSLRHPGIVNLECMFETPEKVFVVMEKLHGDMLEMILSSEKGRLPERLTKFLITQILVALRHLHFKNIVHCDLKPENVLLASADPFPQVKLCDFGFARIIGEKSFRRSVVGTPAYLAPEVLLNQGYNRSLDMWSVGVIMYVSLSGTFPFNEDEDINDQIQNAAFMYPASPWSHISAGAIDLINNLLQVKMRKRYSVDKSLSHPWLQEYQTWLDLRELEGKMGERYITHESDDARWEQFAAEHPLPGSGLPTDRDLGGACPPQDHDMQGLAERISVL

[5] = target: Receptor-interacting serine/threonine-protein kinase 2 (Homo sapiens, UniProt O43353)
Chain of Receptor-interacting serine/threonine-protein kinase 2 (O43353 whole entry): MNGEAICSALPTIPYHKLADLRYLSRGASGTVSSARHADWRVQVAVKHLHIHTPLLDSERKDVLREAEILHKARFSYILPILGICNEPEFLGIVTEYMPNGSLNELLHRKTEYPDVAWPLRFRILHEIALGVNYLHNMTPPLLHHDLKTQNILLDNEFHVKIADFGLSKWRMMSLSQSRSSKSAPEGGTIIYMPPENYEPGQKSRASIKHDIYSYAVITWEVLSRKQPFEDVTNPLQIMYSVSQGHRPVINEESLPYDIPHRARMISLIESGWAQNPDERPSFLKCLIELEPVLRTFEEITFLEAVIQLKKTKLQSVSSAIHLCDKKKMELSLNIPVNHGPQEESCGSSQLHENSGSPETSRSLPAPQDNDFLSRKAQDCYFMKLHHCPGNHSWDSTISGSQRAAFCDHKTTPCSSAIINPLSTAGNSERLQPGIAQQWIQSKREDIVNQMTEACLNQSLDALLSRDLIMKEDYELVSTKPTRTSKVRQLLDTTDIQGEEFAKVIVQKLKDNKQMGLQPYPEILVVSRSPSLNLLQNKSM
Note: in the data inactive means no Kd found up to 30 µM.

| Compound | Kd [1] | Kd [2] | Kd [3] | Kd [4] | Kd [5] |
| --- | --- | --- | --- | --- | --- |
| CN(C[C@@H]1COCCO1)S(=O)(=O)Nc1ccc2ccc3ncc(-c4cnn(C)c4)cc3c(=O)c2c1 [MK-2461] | > 30 µM (inactive) | > 30 µM (inactive) | 1.03 µM (active) | > 30 µM (inactive) | > 30 µM (inactive) |
| Cn1cc(-c2cnc3ccc4ccc(CS(=O)(=O)NCc5ccccn5)cc4c(=O)c3c2)cn1 [MK-8033] | > 30 µM (inactive) | > 30 µM (inactive) | > 30 µM (inactive) | > 30 µM (inactive) | > 30 µM (inactive) |
| FC(F)(F)c1ccc(/C=C/c2nc(COc3ccc(CCCCn4ccnn4)cc3)co2)cc1 [MUBRITINIB] | > 30 µM (inactive) | > 30 µM (inactive) | > 30 µM (inactive) | > 30 µM (inactive) | > 30 µM (inactive) |
| COc1ncc(-c2ccc3nccc(-c4ccnnc4)c3c2)cc1NS(=O)(=O)c1ccc(F)cc1F [OMIPALISIB] | > 30 µM (inactive) | > 30 µM (inactive) | 1.37 µM (active) | > 30 µM (inactive) | > 30 µM (inactive) |
| CCOc1cc2ncc(C#N)c(Nc3ccc(F)c(Cl)c3)c2cc1NC(=O)/C=C/CN(C)C [PELITINIB] | 0.117 µM (active) | > 30 µM (inactive) | > 30 µM (inactive) | > 30 µM (inactive) | > 30 µM (inactive) |
| CCCCCCCCCCCCCCCCCCOP(=O)([O-])OC1CC[N+](C)(C)CC1 [PERIFOSINE] | > 30 µM (inactive) | > 30 µM (inactive) | > 30 µM (inactive) | > 30 µM (inactive) | > 30 µM (inactive) |
| Cc1cnc(NC(=O)Nc2cc(Br)c(C)cc2OC[C@@H]2CNCCO2)cn1 [RABUSERTIB] | > 30 µM (inactive) | > 30 µM (inactive) | > 30 µM (inactive) | > 30 µM (inactive) | > 30 µM (inactive) |
| CNC(=O)c1cc(Oc2ccc(NC(=O)Nc3cc(C(C)(C)C)nn3-c3ccc4ncccc4c3)c(F)c2)ccn1 [REBASTINIB] | > 30 µM (inactive) | > 30 µM (inactive) | > 30 µM (inactive) | > 30 µM (inactive) | > 30 µM (inactive) |
| CO[C@H]1C[C@@H]2CC[C@@H](C)[C@@](O)(O2)C(=O)C(=O)N2CCCC[C@H]2C(=O)O[C@H]([C@H](C)C[C@@H]2CC[C@@H](OP(C)(C)=O)[C@H](OC)C2)CC(=O)[C@H](C)/C=C(\C)[C@@H](O)[C@@H](OC)C(=O)[C@H](C)C[C@H](C)/C=C/C=C/C=C/1C [RIDAFOROLIMUS] | > 30 µM (inactive) | > 30 µM (inactive) | > 30 µM (inactive) | > 30 µM (inactive) | > 30 µM (inactive) |
| N#CC1(c2ccc(NC(=O)c3cccnc3NCc3ccncc3)cc2)CCCC1 [RIVOCERANIB] | > 30 µM (inactive) | > 30 µM (inactive) | > 30 µM (inactive) | > 30 µM (inactive) | > 30 µM (inactive) |
| O=c1[nH]ccc2cc(OC3CCNCC3)ccc12 [SAR-407899 FREE BASE] | > 30 µM (inactive) | > 30 µM (inactive) | > 30 µM (inactive) | > 30 µM (inactive) | > 30 µM (inactive) |
| Cn1cc(-c2cnn3c(N)c(Br)c([C@@H]4CCCNC4)nc23)cn1 [SCH-900776] | > 30 µM (inactive) | > 30 µM (inactive) | > 30 µM (inactive) | 6.41 µM (active) | > 30 µM (inactive) |
| CO[C@H]1C[C@@H]2CC[C@@H](C)[C@@](O)(O2)C(=O)C(=O)N2CCCC[C@H]2C(=O)O[C@H]([C@H](C)C[C@@H]2CC[C@@H](O)[C@H](OC)C2)CC(=O)[C@H](C)/C=C(\C)[C@@H](O)[C@@H](OC)C(=O)[C@H](C)C[C@H](C)/C=C/C=C/C=C/1C [SIROLIMUS] | > 30 µM (inactive) | > 30 µM (inactive) | > 30 µM (inactive) | > 30 µM (inactive) | > 30 µM (inactive) |
| CCS(=O)(=O)c1cccc(-c2cc(C(=O)NC3CCN(C)CC3)c(C)c3[nH]c4ncc(C)cc4c23)c1 [TAK-901] | > 30 µM (inactive) | > 30 µM (inactive) | > 30 µM (inactive) | > 30 µM (inactive) | > 30 µM (inactive) |
| CO[C@H]1C[C@@H]2CC[C@@H](C)[C@@](O)(O2)C(=O)C(=O)N2CCCC[C@H]2C(=O)O[C@H]([C@H](C)C[C@@H]2CC[C@@H](OC(=O)C(C)(CO)CO)[C@H](OC)C2)CC(=O)[C@H](C)/C=C(\C)[C@@H](O)[C@@H](OC)C(=O)[C@H](C)C[C@H](C)/C=C/C=C/C=C/1C [TEMSIROLIMUS] | > 30 µM (inactive) | > 30 µM (inactive) | > 30 µM (inactive) | > 30 µM (inactive) | > 30 µM (inactive) |
| COc1cc2c(Nc3ccc(Cl)c(Cl)c3F)ncnc2cc1OC[C@@H]1C[C@@H]2CN(C)C[C@@H]2C1 [TESEVATINIB] | 0.615 µM (active) | > 30 µM (inactive) | > 30 µM (inactive) | > 30 µM (inactive) | 0.033 µM (active) |
| O=C(Cc1ccc(-c2ccc(OCCN3CCOCC3)cc2)cn1)NCc1ccccc1 [TIRBANIBULIN] | > 30 µM (inactive) | > 30 µM (inactive) | > 30 µM (inactive) | > 30 µM (inactive) | > 30 µM (inactive) |
| O=C1NC(=O)[C@@H](c2cn3c4c(cccc24)CCC3)[C@@H]1c1c[nH]c2ccccc12 [TIVANTINIB] | > 30 µM (inactive) | > 30 µM (inactive) | > 30 µM (inactive) | > 30 µM (inactive) | > 30 µM (inactive) |
